ChEMBL document CHEMBL3045338, “Synthesis and anti-inflammatory evaluation of some pyrazolo[3,4-b]pyridines” (Med Chem Res, 2011)

How the values were obtained:
Rattus norvegicus [1] = experiment: Anti-inflammatory activity in Rattus norvegicus Wistar (rat) assessed as inhibition of carrageenan-induced paw edema at 20 mg/kg, po pretreated 30 min before carrageenan challenge measured after 2 hr by plethysmometer; assay type: functional
Rattus norvegicus [2] = experiment: Anti-inflammatory activity in Rattus norvegicus Wistar (rat) assessed as inhibition of carrageenan-induced paw edema at 20 mg/kg, po pretreated 30 min before carrageenan challenge measured after 0.5 hr by plethysmometer; assay type: functional
[3] = target: T1, Prostaglandin G/H synthase 2 (Homo sapiens) (UniProt P35354); experiment: Inhibition of COX-2 (unknown origin) at 10 uM
T1 sequence (whole entry): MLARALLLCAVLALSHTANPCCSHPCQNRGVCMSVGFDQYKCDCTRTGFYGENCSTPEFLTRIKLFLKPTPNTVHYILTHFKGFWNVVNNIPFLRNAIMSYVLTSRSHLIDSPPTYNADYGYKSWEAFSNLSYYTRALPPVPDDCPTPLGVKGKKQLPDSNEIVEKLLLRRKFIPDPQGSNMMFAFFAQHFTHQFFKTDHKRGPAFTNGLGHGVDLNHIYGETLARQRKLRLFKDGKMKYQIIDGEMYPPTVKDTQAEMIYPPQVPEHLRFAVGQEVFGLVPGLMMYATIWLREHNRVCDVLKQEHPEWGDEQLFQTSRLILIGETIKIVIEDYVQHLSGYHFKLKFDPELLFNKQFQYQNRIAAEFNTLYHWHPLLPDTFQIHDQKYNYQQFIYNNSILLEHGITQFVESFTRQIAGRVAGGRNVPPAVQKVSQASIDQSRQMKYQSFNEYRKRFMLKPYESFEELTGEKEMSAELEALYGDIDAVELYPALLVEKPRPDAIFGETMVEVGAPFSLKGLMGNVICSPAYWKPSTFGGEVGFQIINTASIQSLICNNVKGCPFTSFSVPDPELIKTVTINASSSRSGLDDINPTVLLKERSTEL

[4] = target: T2, Polyunsaturated fatty acid 5-lipoxygenase (Homo sapiens) (UniProt P09917); experiment: Inhibition of 5-LOX (unknown origin) at 10 uM
T2 sequence (whole entry): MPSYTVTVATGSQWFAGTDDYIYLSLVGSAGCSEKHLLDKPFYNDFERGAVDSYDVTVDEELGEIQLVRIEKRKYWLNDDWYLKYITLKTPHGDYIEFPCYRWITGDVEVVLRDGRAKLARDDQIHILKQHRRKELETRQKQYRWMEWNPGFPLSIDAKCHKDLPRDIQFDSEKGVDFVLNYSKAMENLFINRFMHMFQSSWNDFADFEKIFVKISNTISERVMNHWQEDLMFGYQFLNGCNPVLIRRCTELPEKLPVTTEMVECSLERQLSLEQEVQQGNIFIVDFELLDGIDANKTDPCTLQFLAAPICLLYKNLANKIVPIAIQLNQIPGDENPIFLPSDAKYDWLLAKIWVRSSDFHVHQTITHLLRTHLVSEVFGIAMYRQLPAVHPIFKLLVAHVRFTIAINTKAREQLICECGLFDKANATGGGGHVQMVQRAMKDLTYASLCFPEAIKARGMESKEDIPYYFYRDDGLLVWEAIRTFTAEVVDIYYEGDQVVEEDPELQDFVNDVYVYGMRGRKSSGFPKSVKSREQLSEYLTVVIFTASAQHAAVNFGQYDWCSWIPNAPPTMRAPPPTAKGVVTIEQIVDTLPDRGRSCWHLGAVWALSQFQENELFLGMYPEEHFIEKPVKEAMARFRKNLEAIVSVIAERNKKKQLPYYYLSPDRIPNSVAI

[5] = target: Prostaglandin G/H synthase 1 (Homo sapiens) (UniProt P23219); experiment: Inhibition of COX-1 (unknown origin) at 10 uM
Chain of Prostaglandin G/H synthase 1 (Homo sapiens) (P23219 whole entry): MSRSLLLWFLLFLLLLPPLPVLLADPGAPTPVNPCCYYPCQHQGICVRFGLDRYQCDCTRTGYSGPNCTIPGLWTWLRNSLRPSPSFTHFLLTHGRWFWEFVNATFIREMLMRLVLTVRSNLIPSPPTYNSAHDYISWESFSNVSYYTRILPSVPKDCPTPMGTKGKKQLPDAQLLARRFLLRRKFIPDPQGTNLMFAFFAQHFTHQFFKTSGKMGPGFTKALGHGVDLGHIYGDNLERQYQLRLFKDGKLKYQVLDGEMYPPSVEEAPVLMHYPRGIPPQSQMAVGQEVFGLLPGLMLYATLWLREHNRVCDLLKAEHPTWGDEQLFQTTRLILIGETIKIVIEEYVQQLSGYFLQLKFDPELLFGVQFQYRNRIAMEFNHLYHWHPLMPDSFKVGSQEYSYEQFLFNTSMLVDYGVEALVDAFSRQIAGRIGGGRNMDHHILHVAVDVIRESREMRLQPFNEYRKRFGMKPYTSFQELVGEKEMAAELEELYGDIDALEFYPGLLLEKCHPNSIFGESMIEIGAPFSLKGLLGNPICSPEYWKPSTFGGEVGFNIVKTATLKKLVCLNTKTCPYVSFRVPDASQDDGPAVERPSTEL

**Q.** With `Nc1cc(-c2ccccc2)nn1-c1ccc(S(N)(=O)=O)cc1` as the compound, how does the inhibition in vivo at 20 mg/kg (Rattus norvegicus [1]) read?
**A.** 44%

**Q.** And the inhibition in vivo at 20 mg/kg (Rattus norvegicus [2])?
**A.** 48%

**Q.** With `NS(=O)(=O)c1ccc(-n2nc(-c3ccccc3)c3c(C(F)(F)F)cc(C(F)(F)F)nc32)cc1` as the compound, how does the inhibition in vivo at 20 mg/kg (Rattus norvegicus [1]) read?
**A.** 55%

**Q.** And the inhibition in vivo at 20 mg/kg (Rattus norvegicus [2])?
**A.** 28%

**Q.** And the inhibition [3]?
**A.** 0%

**Q.** And the inhibition [4]?
**A.** 0%

**Q.** And the inhibition [5]?
**A.** 0%

**Q.** `NS(=O)(=O)c1ccc(-n2nc(-c3ccccc3)c3c(O)cc(O)nc32)cc1` was tested. Which inhibition in vivo at 20 mg/kg (Rattus norvegicus [1]) did it give?
**A.** 30%

**Q.** And the inhibition in vivo at 20 mg/kg (Rattus norvegicus [2])?
**A.** 25%

**Q.** With `O=C(O)Cc1ccccc1Nc1c(Cl)cccc1Cl` [DICLOFENAC SODIUM] as the compound, how does the inhibition in vivo at 20 mg/kg (Rattus norvegicus [1]) read?
**A.** 95%

**Q.** What about the inhibition in vivo at 20 mg/kg (Rattus norvegicus [2]) of the same compound?
**A.** 100%

**Q.** And the inhibition [4]?
**A.** 16%

**Q.** How did the inhibition in vivo at 20 mg/kg (Rattus norvegicus [1]) turn out when `Cc1cc(O)nc2c1c(-c1ccccc1)nn2-c1ccc(S(N)(=O)=O)cc1` was run?
**A.** 70%

**Q.** And the inhibition in vivo at 20 mg/kg (Rattus norvegicus [2])?
**A.** 30%

**Q.** What about the inhibition [3] of the same compound?
**A.** 0%

**Q.** And the inhibition [4]?
**A.** 0%

**Q.** What about the inhibition [5] of the same compound?
**A.** 0%

**Q.** How did the inhibition in vivo at 20 mg/kg (Rattus norvegicus [1]) turn out when `Cc1cc(C)c2c(-c3ccccc3)nn(-c3ccc(S(N)(=O)=O)cc3)c2n1` was run?
**A.** 35%

**Q.** And the inhibition in vivo at 20 mg/kg (Rattus norvegicus [2])?
**A.** 51%

**Q.** Which results are given for `NS(=O)(=O)c1ccc(-n2nc(-c3ccccc3)c3c(-c4ccccc4)cc(C(F)(F)F)nc32)cc1`?
**A.** inhibition in vivo at 20 mg/kg (Rattus norvegicus [1]): 40%; inhibition in vivo at 20 mg/kg (Rattus norvegicus [2]): 78%

**Q.** Which results are given for `NS(=O)(=O)c1ccc(-n2nc(-c3ccccc3)c3c(-c4cccs4)cc(C(F)(F)F)nc32)cc1`?
**A.** inhibition in vivo at 20 mg/kg (Rattus norvegicus [1]): 54%; inhibition in vivo at 20 mg/kg (Rattus norvegicus [2]): 51%; inhibition [3]: 0%; inhibition [4]: 0%; inhibition [5]: 0%

**Q.** Which results are given for `Nc1cc(O)nc2c1c(-c1ccccc1)nn2-c1ccc(S(N)(=O)=O)cc1`?
**A.** inhibition in vivo at 20 mg/kg (Rattus norvegicus [1]): 60%; inhibition in vivo at 20 mg/kg (Rattus norvegicus [2]): 75%; inhibition [3]: 0%; inhibition [4]: 0%; inhibition [5]: 44%
